Measurements taken from the NIST ThermoML archive (doi:10.1021/acs.jced.8b00157).
Numbers after ± are expanded uncertainties.

Assay: an = ratio of the nth substance listed
Settings: 100 kPa, Liquid, Buoyancy - hydrostatic balance

[F][Al]([F])[F] [aluminum fluoride] + [F-].[K+]
mass density [kg/m3]
Settings	a2 = 1.3	a2 = 1.5
1068.5 K	1772 ± 10	–
1068.7 K	–	1790 ± 10
1069.1 K	–	1790 ± 10
1069.3 K	1772 ± 10	–
1069.4 K	1771 ± 10	–
1069.6 K	1771 ± 10	1790 ± 10
1069.9 K	–	1789 ± 10
1070.1 K	1771 ± 10	–
1070.2 K	–	1789 ± 10
1070.5 K	1771 ± 10	–
1070.7 K	–	1788 ± 10
1071.1 K	–	1788 ± 10
1071.2 K	1770 ± 11	–
1071.3 K	1770 ± 11	–
1071.4 K	–	1788 ± 10
1071.9 K	1769 ± 11	1787 ± 10
1072 K	1769 ± 11	–
1072.3 K	–	1787 ± 10
1072.6 K	1768 ± 11	–
1072.7 K	1768 ± 11	1787 ± 10
1073 K	–	1787 ± 10
1073.4 K	1768 ± 11	1787 ± 10
1073.7 K	–	1786 ± 10
1073.8 K	1767 ± 11	–
1073.9 K	1767 ± 11	–
1074.1 K	–	1786 ± 10
1074.5 K	–	1786 ± 10
1074.7 K	1766 ± 11	–
1074.9 K	–	1786 ± 10
1075.2 K	–	1785 ± 10
1075.3 K	1766 ± 11	–
1075.4 K	–	1785 ± 10
1075.5 K	1766 ± 11	–
1075.6 K	–	1784 ± 10
1076 K	1765 ± 11	–
1076.2 K	–	1784 ± 10
1076.4 K	1765 ± 11	–
1076.5 K	1765 ± 11	–
1076.6 K	–	1784 ± 10
1076.7 K	1765 ± 11	–
1077 K	–	1784 ± 10
1077.3 K	–	1783 ± 10
1077.4 K	1763 ± 11	–
1077.7 K	–	1783 ± 10
1078.1 K	–	1783 ± 10
1078.2 K	1762 ± 11	–
1078.3 K	1762 ± 11	1782 ± 10
1078.4 K	1761 ± 11	–
1078.7 K	–	1782 ± 10
1079.1 K	1761 ± 11	1782 ± 10
1079.4 K	–	1782 ± 10
1079.5 K	1760 ± 11	–
1079.7 K	1760 ± 11	1781 ± 10
1080.2 K	–	1781 ± 10
1080.5 K	–	1780 ± 10
1080.7 K	1760 ± 11	–
1080.8 K	1759 ± 11	–
1081 K	–	1780 ± 10
1081.2 K	1759 ± 11	–
1081.3 K	–	1780 ± 10
1081.4 K	1759 ± 11	–
1081.6 K	1758 ± 11	–
1081.7 K	1757 ± 11	–
1081.8 K	–	1780 ± 10
1082.1 K	–	1779 ± 10
1082.4 K	1758 ± 11	–
1082.5 K	–	1779 ± 10
1082.7 K	1757 ± 11	–
1082.8 K	1757 ± 11	1779 ± 10
1083.2 K	–	1779 ± 10
1083.6 K	–	1778 ± 10
1083.9 K	1756 ± 11	1778 ± 10
1084.1 K	1756 ± 11	–
1084.3 K	–	1778 ± 10
1084.4 K	1756 ± 11	–
1084.8 K	–	1778 ± 10
1084.9 K	1756 ± 10	–
1085.1 K	–	1777 ± 10
1085.4 K	1755 ± 10	–
1085.5 K	–	1777 ± 10
1085.6 K	1755 ± 10	–
1085.9 K	–	1776 ± 10
1086.2 K	1754 ± 10	–
1086.4 K	1754 ± 11	1776 ± 10
1086.6 K	–	1776 ± 10
1086.9 K	1754 ± 11	–
1087 K	1754 ± 11	–
1087.1 K	–	1776 ± 10
1087.6 K	–	1775 ± 10
1087.7 K	1753 ± 10	–
1088 K	1753 ± 10	1775 ± 10
1088.2 K	1753 ± 10	–
1088.3 K	1752 ± 10	–
1088.4 K	–	1775 ± 10
1088.8 K	1752 ± 10	1775 ± 10
1089.2 K	–	1774 ± 10
1089.3 K	1751 ± 10	–
1089.6 K	–	1774 ± 10
1089.7 K	1751 ± 11	–
1089.9 K	–	1774 ± 10
1090.4 K	1751 ± 11	1774 ± 10
1090.5 K	1751 ± 11	–
1090.7 K	–	1773 ± 10
1091 K	1750 ± 11	–
1091.1 K	–	1773 ± 10
1091.2 K	1750 ± 11	–
1091.6 K	–	1772 ± 10
1091.7 K	1750 ± 11	–
1092 K	–	1772 ± 10
1092.2 K	1749 ± 11	–
1092.3 K	1749 ± 10	1772 ± 10
1092.5 K	1748 ± 11	–
1092.6 K	1748 ± 11	–
1092.7 K	–	1772 ± 10
1093.2 K	–	1771 ± 10
1093.5 K	1747 ± 11	1771 ± 10
1093.8 K	1748 ± 11	–
1093.9 K	–	1771 ± 10
1094.2 K	1747 ± 11	–
1094.3 K	–	1771 ± 10
1094.7 K	–	1770 ± 10
1094.8 K	1747 ± 11	–
1094.9 K	1747 ± 11	–
1095 K	1746 ± 11	–
1095.1 K	–	1770 ± 10
1095.3 K	1746 ± 10	–
1095.5 K	1745 ± 10	1770 ± 10
1095.8 K	–	1769 ± 10
1096.1 K	1745 ± 11	–
1096.2 K	1745 ± 11	–
1096.3 K	–	1769 ± 10
1096.4 K	1744 ± 11	–
1096.6 K	–	1769 ± 10
1096.7 K	1744 ± 11	–
1097 K	–	1769 ± 10
1097.1 K	1744 ± 11	–
1097.2 K	1744 ± 11	–
1097.4 K	–	1768 ± 10
1097.6 K	1744 ± 11	–
1097.9 K	–	1768 ± 10
1098.1 K	1743 ± 11	1767 ± 10
1098.3 K	1743 ± 11	–
1098.5 K	–	1767 ± 10
1098.6 K	1743 ± 10	–
1098.8 K	1742 ± 11	–
1098.9 K	1742 ± 11	–
1099 K	–	1767 ± 10
1099.4 K	–	1767 ± 10
1099.5 K	1742 ± 10	–
1099.6 K	1742 ± 10	–
1099.8 K	–	1766 ± 10
1100.1 K	1741 ± 11	–
1100.2 K	–	1766 ± 10
1100.4 K	1741 ± 11	–
1100.6 K	1741 ± 11	1766 ± 10
1100.9 K	1740 ± 11	1766 ± 10
1101 K	1741 ± 10	–
1101.2 K	1740 ± 11	1765 ± 10
1101.7 K	1740 ± 10	1765 ± 10
1101.8 K	1739 ± 11	–
1101.9 K	1739 ± 11	–
1102.1 K	–	1765 ± 10
1102.4 K	–	1765 ± 10
1102.5 K	1739 ± 10	–
1102.9 K	–	1764 ± 10
1103.4 K	–	1764 ± 10
1103.6 K	–	1763 ± 10
1104.1 K	–	1763 ± 10
1104.5 K	–	1763 ± 10
1104.8 K	–	1763 ± 10
1105.2 K	–	1762 ± 10
1105.7 K	–	1762 ± 10
1105.9 K	–	1762 ± 10
1106.4 K	–	1762 ± 10
1106.7 K	–	1761 ± 10
1107.3 K	–	1761 ± 10
1107.7 K	–	1761 ± 10
1108 K	–	1761 ± 10
1108.5 K	–	1760 ± 10
1108.8 K	–	1760 ± 10
1109.3 K	–	1759 ± 10
1109.7 K	–	1759 ± 10
1110.1 K	–	1759 ± 10
1110.5 K	–	1759 ± 10
1111 K	–	1758 ± 10
1111.3 K	–	1758 ± 10
1111.7 K	–	1758 ± 10
1112.1 K	–	1757 ± 10
1112.6 K	–	1757 ± 10
1112.9 K	–	1757 ± 10
1113.2 K	–	1757 ± 10
1113.7 K	–	1756 ± 10
1114.2 K	–	1756 ± 10
1114.6 K	–	1755 ± 10
1114.9 K	–	1755 ± 10
1115.3 K	–	1755 ± 10
1115.7 K	–	1754 ± 10
1116.1 K	–	1754 ± 10
1116.5 K	–	1754 ± 10
1117 K	–	1754 ± 10
1117.4 K	–	1753 ± 10
1117.8 K	–	1753 ± 10
1118.3 K	–	1753 ± 10
1118.7 K	–	1752 ± 10
1119.2 K	–	1752 ± 10
1119.4 K	–	1751 ± 10
1119.9 K	–	1751 ± 10
1120.3 K	–	1751 ± 10
1120.6 K	–	1751 ± 10
1121.2 K	–	1750 ± 10
1121.5 K	–	1750 ± 10
1122 K	–	1750 ± 10
1122.4 K	–	1750 ± 10
1122.8 K	–	1749 ± 10
1123.3 K	–	1749 ± 10
